Bridge positions count the residues as written; N and C are the ends. Peptide text beside a SMILES is read from it.

One test concerns the target Integrin alpha-5/beta-1 (Homo sapiens, UniProt P05556+P08648). The test can be described thus: Inhibition of mouse melanoma B16-F10 cell adhesion to fibronectin. It is filed as functional, cell-based.
In test [1] the target is T1, Integrin alpha-IIb/beta-3 (Homo sapiens) (UniProt P05106+P08514). The test is described as follows: Inhibition of platelet aggregation at 0.3 mM in platelet-rich plasma (PRP) of citreated rabbit heart blood. The class given is functional. As to conditions: Oryctolagus cuniculus, target entry is the homologue from another species.
The target of test [2] is T1, Integrin alpha-IIb/beta-3 (Homo sapiens). The test is described as follows: Inhibition of platelet aggregation at 1 mM in platelet-rich plasma (PRP) of citreated rabbit heart blood. It is filed as functional. As to conditions: Oryctolagus cuniculus, target entry is the homologue from another species.
Test [3] concerns the target Protein farnesyltransferase (Homo sapiens, UniProt P49354+P49356). The test is described as follows: Inhibition of Farnesyltransferase by Scintillation Proximity Assay. It is filed as protein-complex assay. Background: In a scintillation proximity assay essentially only radioactivity close to the scintillant gives light.
The target of test [4] is Protein farnesyltransferase (Bos taurus, UniProt P29702+P49355). The test can be described thus: In vitro inhibition of farnesylation of v-Ki-Ras by bovine farnesyl transferase. It is filed as protein-complex assay.
In test [5] the target is T1, Integrin alpha-IIb/beta-3 (Homo sapiens). The test can be described thus: Inhibition of platelet aggregation at 0.1 mM in platelet-rich plasma (PRP) of citreated rabbit heart blood. It is filed as functional. As to conditions: Oryctolagus cuniculus, target entry is the homologue from another species.

Chain of Integrin alpha-5/beta-1 (P05556 21-798 limits assumed): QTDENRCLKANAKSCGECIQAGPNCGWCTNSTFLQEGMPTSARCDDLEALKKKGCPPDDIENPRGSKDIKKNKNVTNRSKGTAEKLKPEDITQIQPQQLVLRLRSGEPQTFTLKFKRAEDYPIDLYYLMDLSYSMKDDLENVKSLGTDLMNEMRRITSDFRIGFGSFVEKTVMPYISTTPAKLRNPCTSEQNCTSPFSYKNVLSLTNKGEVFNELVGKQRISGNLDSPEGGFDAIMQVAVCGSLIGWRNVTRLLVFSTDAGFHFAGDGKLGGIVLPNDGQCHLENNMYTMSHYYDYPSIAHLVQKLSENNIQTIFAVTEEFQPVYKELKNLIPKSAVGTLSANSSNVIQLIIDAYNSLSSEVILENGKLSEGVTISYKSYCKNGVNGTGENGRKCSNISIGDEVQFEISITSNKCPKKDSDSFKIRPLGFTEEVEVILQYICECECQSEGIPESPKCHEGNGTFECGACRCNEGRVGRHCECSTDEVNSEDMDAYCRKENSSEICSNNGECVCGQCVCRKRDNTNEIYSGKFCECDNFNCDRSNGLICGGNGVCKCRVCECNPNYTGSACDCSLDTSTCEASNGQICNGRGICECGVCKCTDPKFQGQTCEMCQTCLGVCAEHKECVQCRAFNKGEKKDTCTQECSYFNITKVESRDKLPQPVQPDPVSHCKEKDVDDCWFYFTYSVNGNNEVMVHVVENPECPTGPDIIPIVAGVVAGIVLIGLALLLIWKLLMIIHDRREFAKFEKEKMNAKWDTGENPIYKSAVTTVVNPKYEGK
Chain of Integrin alpha-5/beta-1 (P08648 42-894 limits assumed): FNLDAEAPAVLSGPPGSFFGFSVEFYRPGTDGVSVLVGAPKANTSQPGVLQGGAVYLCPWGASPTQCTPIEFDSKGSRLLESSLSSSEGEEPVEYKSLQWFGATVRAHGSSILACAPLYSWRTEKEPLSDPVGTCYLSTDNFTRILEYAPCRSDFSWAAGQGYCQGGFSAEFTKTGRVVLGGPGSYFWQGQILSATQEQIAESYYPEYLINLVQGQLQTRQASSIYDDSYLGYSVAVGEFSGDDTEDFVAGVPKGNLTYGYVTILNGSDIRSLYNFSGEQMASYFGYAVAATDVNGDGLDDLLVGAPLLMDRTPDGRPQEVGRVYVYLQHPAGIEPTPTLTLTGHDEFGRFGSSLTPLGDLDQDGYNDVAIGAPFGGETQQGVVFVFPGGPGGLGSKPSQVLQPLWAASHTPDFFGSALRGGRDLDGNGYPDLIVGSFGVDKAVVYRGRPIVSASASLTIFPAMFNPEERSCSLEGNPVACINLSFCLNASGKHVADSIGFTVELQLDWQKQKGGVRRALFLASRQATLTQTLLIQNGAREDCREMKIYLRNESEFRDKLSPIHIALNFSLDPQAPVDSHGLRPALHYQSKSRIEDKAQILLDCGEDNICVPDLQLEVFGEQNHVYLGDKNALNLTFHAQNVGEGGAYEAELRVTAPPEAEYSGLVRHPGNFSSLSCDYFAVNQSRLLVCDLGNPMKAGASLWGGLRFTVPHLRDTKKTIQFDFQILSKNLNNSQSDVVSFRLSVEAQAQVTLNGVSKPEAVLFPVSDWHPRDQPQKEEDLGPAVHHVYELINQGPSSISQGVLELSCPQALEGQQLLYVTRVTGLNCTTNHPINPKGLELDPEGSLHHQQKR
Chain of Integrin alpha-5/beta-1 (P08648 895-1049 limits assumed): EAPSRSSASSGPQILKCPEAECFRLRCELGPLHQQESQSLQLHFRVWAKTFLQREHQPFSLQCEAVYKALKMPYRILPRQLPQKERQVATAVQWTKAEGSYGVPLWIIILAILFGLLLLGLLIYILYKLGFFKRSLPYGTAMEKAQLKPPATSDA

As a reminder, the IC50 is the concentration that inhibits the measured activity by half. Read a high IC50 as a need for much substance. In the case of H-VTGRGDSPA-OH [listing 1 of 2 here], on Integrin alpha-5/beta-1, it took 1100 µM to reach half-maximal inhibition (IC50). This counts as millimolar.

Regarding `CC(C)[C@H](NC(=O)[C@H](C)NC(=O)[C@H](Cc1ccc(O)cc1)NC(=O)[C@@H](NC(=O)[C@@H]1CC(=O)NCC(=O)N[C@@H](CC(N)=O)C(=O)N[C@@H](Cc2c[nH]c3ccccc23)C(=O)N[C@@H](Cc2cnc[nH]2)C(=O)NCC(=O)N[C@@H]([C@@H](C)O)C(=O)N[C@@H](C)C(=O)N2CCC[C@H]2C(=O)N1)C(C)C)C(=O)N[C@H](C(=O)NCC(=O)N[C@@H](CCCNC(=N)N)C(=O)NCC(=O)N[C@@H](CC(=O)O)C(=O)N[C@@H](CO)C(=O)N1CCC[C@H]1C(=O)N[C@@H](C)C(N)=O)[C@@H](C)O` (GNWHGTAPDVYAVTGRGDSPA-NH2; lactam N-9), it took 800 µM to reach half-maximal inhibition at Integrin alpha-5/beta-1 (b16-f10) (IC50).

With H-VTGRGDSPA-OH [listing 2 of 2 here], the Inhibitory ratio in test [1] amounted to 20.3%; in test [2], 61.2%.

Regarding `CSCC[C@H](NC(=O)[C@@H](NC(=O)[C@@H](NC(=O)[C@H](CS)NC(=O)[C@H]1CCCN1C(=O)[C@H](CC(C)C)NC(=O)CNC(=O)[C@H](CCSC)NC(=O)[C@H](CO)N[C@H]1CC(=O)NCC(=O)N[C@H](CC(N)=O)C(=O)N[C@@H](Cc2c[nH]c3ccccc23)C(=O)N[C@H](Cc2c[nH]cn2)C(=O)NCC(=O)N[C@H]([C@@H](C)O)C(=O)N[C@@H](C)C(=O)N2CCC[C@@H]2C(=O)N1)C(C)C)C(C)C)C(=O)O`, the IC50 in test [3] was determined as 420 nM; in test [4] it was 560 µM.

With `CC(C)[C@H](NC(=O)[C@@H]1CC(=O)NCC(=O)N[C@@H](CC(N)=O)C(=O)N[C@@H](Cc2c[nH]c3ccccc23)C(=O)N[C@@H](Cc2cnc[nH]2)C(=O)NCC(=O)N[C@@H]([C@@H](C)O)C(=O)N[C@@H](C)C(=O)N2CCC[C@H]2C(=O)N1)C(=O)N[C@H](C(=O)NCC(=O)N[C@@H](CCCNC(=N)N)C(=O)NCC(=O)N[C@@H](CC(=O)O)C(=O)N[C@@H](CO)C(=O)N1CCC[C@H]1C(=O)N[C@@H](C)C(=O)O)[C@@H](C)O`, the IC50 at Integrin alpha-5/beta-1 is 290 µM.

On to `CC(C)[C@H](NC(=O)[C@H]1CC(=O)NCC(=O)N[C@H](CC(N)=O)C(=O)N[C@@H](Cc2c[nH]c3ccccc23)C(=O)N[C@H](Cc2c[nH]cn2)C(=O)NCC(=O)N[C@H]([C@@H](C)O)C(=O)N[C@@H](C)C(=O)N2CCC[C@@H]2C(=O)N1)C(=O)N[C@H](C(=O)NCC(=O)N[C@@H](CCCN=C(N)N)C(=O)NCC(=O)N[C@@H](CC(=O)O)C(=O)N[C@@H](CO)C(=O)N1CCC[C@@H]1C(=O)N[C@@H](C)C(=O)O)[C@@H](C)O`, for which the Inhibitory ratio in test [5] came to 28.3%; in test [1], 78.4%; in test [2] it was 92.1%.

In turn, H-VYAVTGRGDSPA-NH2 displayed an IC50 on Integrin alpha-5/beta-1 of 1000 µM.

For the compound `CSCC[C@H](NC(=O)[C@@H](NC(=O)[C@@H](NC(=O)[C@H](CS)NC(=O)[C@@H]1CCCN1C(=O)[C@H](CC(C)C)NC(=O)CNC(=O)[C@H](CCSC)NC(=O)[C@@H](N)CO)C(C)C)C(C)C)C(=O)O`, half-maximal inhibition in test [3] (IC50) was put at 1200 nM. This counts as single-digit micromolar.

These data come from ChEMBL document CHEMBL1145727, “Improvement of biological activity and proteolytic stability of peptides by coupling with a cyclic peptide” (Bioorg Med Chem Lett, 2003).
